According to US20240158393A1, “PYRIDONE COMPOUNDS AND METHODS OF USE” (Exelixis, Inc., priority 2021, published 2024):

Key:
Human Mer = target: T1, Human Mer (Homo sapiens, UniProt Q12866); test: Human Mer kinase assay (33P radiometric / HTRF KinEase); type: biochemical; settings: protocols of Examples C-1 and/or C-2
T1 construct: Human Mer (residues R557-E882 with H628Q and R794A, 0.7 nM); purchased Eurofins Pharma Discovery Services UK Limited (KinaseProfiler service)
T1 sequence (Q12866 557-882 limits assumed): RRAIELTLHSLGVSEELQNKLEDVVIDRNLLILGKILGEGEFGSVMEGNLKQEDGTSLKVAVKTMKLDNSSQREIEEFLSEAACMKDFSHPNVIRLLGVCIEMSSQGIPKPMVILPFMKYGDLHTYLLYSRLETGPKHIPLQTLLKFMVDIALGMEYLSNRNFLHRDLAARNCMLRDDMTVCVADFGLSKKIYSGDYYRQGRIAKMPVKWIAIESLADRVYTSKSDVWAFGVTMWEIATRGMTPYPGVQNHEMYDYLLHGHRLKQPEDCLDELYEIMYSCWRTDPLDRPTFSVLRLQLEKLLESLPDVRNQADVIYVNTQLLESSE
How it was run: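 Two formats yield IC50 values. HTRF KinEase used MER residues 528-999 with ATP at Km (40 μM), 1 μM biotin-peptide, 60 min RT, […], 10 concentrations. 33P filter assay used 0.7 nM Mer R557-E882 (H628Q/R794A), 10 μM ATP, 250 μM peptide, 40 min RT, top 1 μM.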

Human Met = target: T2, Human Met (Homo sapiens, UniProt P08581); test: Human Met kinase assay (33P radiometric / HTRF KinEase); type: biochemical; settings: protocols of Examples D-1 and/or D-2; read-out: c-Met IC50
T2 construct: Human MET (residues 956-1390)
T2 sequence (P08581 974-1390 limits assumed): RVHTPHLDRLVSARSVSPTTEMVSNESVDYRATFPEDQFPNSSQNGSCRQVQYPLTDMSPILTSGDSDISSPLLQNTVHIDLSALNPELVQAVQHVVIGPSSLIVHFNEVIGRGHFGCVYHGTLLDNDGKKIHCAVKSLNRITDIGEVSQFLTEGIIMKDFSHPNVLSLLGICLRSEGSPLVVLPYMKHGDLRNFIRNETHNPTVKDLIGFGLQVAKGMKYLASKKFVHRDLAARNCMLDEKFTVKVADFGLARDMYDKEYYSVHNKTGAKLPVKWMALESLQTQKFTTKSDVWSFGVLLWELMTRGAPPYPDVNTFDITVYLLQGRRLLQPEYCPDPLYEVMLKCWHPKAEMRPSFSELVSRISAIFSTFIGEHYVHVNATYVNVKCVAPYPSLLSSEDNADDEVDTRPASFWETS
How it was run: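 Two formats gave IC50s by curve fitting. HTRF KinEase used MET residues 956-1390 with 1 μM biotin-peptide and 3.0 μM ATP (Km) for 40 min at room temperature, ten doses in 3% DMSO, 665/620 nm read. The 33P transfer assay used mutant Met R974-S1390 A1209G/V1290L (3.4 nM), 10 μM ATP, 250 μM peptide, pH 7.0, 40 min, nine doses from 1 μM.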

Row | SMILES | IC50 (Human Mer) | IC50 (Human Met)
1 | COCCOc1cc2nccc(Oc3ccc(NC(=O)c4cnc(C)c(/C=C/C(C)(C)C)c4O)cc3F)c2nc1OC [Compound 40, 5-[(E)-3,3-Dimethylbut-1-enyl]-N-[3-fluoro-4-[[6-methoxy-7-(2-methoxyethoxy)-1,5-naphthyridin-4-yl]oxy]phenyl]-4-hydroxy-6-methylpyridine-3-carboxamide] | ≤ 100 nM | ≤ 100 nM
2 | COCCOc1cc2nccc(Oc3ccc(NC(=O)c4c(C)nc(C)c(C5=CCCC5)c4O)cc3F)c2nc1OC [Compound 41, 5-(Cyclopenten-1-yl)-N-[3-fluoro-4-[[6-methoxy-7-(2-methoxyethoxy)-1,5-naphthyridin-4-yl]oxy]phenyl]-4-hydroxy-2,6-dimethylpyridine-3-carboxamide] | ≤ 100 nM | ≤ 100 nM
3 | COCCOc1cc2nccc(Oc3ccc(NC(=O)c4c(C)n(C)c(C)c(C5=CCCC5)c4=O)cc3F)c2nc1OC [Compound 42, 5-(Cyclopenten-1-yl)-N-[3-fluoro-4-[[6-methoxy-7-(2-methoxyethoxy)-1,5-naphthyridin-4-yl]oxy]phenyl]-1,2,6-trimethyl-4-oxopyridine-3-carboxamide] | ≤ 100 nM | ≤ 100 nM
4 | COCCOc1cc2nccc(Oc3ccc(NC(=O)c4c(C)nc(C)c(C5=CCOCC5)c4O)cc3F)c2nc1OC [Compound 43, 5-(3,6-Dihydro-2H-pyran-4-yl)-N-[3-fluoro-4-[[6-methoxy-7-(2-methoxyethoxy)-1,5-naphthyridin-4-yl]oxy]phenyl]-4-hydroxy-2,6-dimethylpyridine-3-carboxamide] | ≤ 100 nM | ≤ 100 nM
5 | COCCOc1cc2nccc(Oc3ccc(NC(=O)c4c(O)c(C5=CCOCC5)c(C)[n+](C)c4C)cc3F)c2nc1OC [Compound 44, 5-(3,6-Dihydro-2H-pyran-4-yl)-N-[3-fluoro-4-[[6-methoxy-7-(2-methoxyethoxy)-1,5-naphthyridin-4-yl]oxy]phenyl]-1,2,6-trimethyl-4-oxopyridine-3-carboxamide] | ≤ 100 nM | ≤ 100 nM
6 | COCCOc1cc2nccc(Oc3ccc(NC(=O)c4c(C)n(C)c(C)c(/C=C/C(C)(C)C)c4=O)cc3F)c2nc1OC [Compound 45, 5-[(E)-3,3-Dimethylbut-1-enyl]-N-[3-fluoro-4-[[6-methoxy-7-(2-methoxyethoxy)-1,5-naphthyridin-4-yl]oxy]phenyl]-1,2,6-trimethyl-4-oxopyridine-3-carboxamide] | ≤ 100 nM | ≤ 100 nM
7 | COc1cc2nccc(Oc3ccc(NC(=O)c4c(C)n(C)c(C)c(C5CC5)c4=O)cc3F)c2nc1OC [Compound 46, 5-Cyclopropyl-N-[4-[(6,7-dimethoxy-1,5-naphthyridin-4-yl)oxy]-3-fluorophenyl]-1,2,6-trimethyl-4-oxopyridine-3-carboxamide] | ≤ 100 nM | > 300 nM
8 | COc1cc2nccc(Oc3cc(F)c(NC(=O)c4c(C)n(C)c(C)c(C5CC5)c4=O)cc3F)c2nc1OC [Compound 47, 5-Cyclopropyl-N-[4-[(6,7-dimethoxy-1,5-naphthyridin-4-yl)oxy]-2,5-difluorophenyl]-1,2,6-trimethyl-4-oxopyridine-3-carboxamide] | ≤ 100 nM | > 300 nM
9 | COc1cc2nccc(Oc3ccc(NC(=O)c4c(C)n(C)c(C)c(C5CC5)c4=O)cc3)c2nc1OC [Compound 48, 5-Cyclopropyl-N-[4-[(6,7-dimethoxy-1,5-naphthyridin-4-yl)oxy]phenyl]-1,2,6-trimethyl-4-oxopyridine-3-carboxamide] | > 300 nM | > 300 nM
10 | COc1cc2nccc(Oc3ccc(NC(=O)c4c(C)n(C)c(C)c(/C=C/C(C)(C)C)c4=O)cc3F)c2nc1OC [Compound 49, N-[4-[(6,7-Dimethoxy-1,5-naphthyridin-4-yl)oxy]-3-fluorophenyl]-5-[(E)-3,3-dimethylbut-1-enyl]-1,2,6-trimethyl-4-oxopyridine-3-carboxamide] | ≤ 100 nM | > 300 nM
11 | COc1cc2nccc(Oc3ccc(NC(=O)c4c(C)n(C)c(C)c(/C=C/C5CC5)c4=O)cc3F)c2nc1OC [Compound 50, 5-[(E)-2-Cyclopropylethenyl]-N-[4-[(6,7-dimethoxy-1,5-naphthyridin-4-yl)oxy]-3-fluorophenyl]-1,2,6-trimethyl-4-oxopyridine-3-carboxamide] | ≤ 100 nM | > 300 nM
12 | COCCOc1cc2nccc(Oc3ccc(NC(=O)c4c(C)n(C)c(C)c(/C=C/C5CC5)c4=O)cc3F)c2nc1OC [Compound 51, 5-[(E)-2-Cyclopropylethenyl]-N-[3-fluoro-4-[[6-methoxy-7-(2-methoxyethoxy)-1,5-naphthyridin-4-yl]oxy]phenyl]-1,2,6-trimethyl-4-oxopyridine-3-carboxamide] | ≤ 100 nM | ≤ 100 nM
13 | COc1cc2nccc(Oc3ccc(NC(=O)c4c5n(c(C)c(C6=CCOCC6)c4=O)CCOC5)cc3F)c2nc1OC [Compound 79, 7-(3,6-Dihydro-2H-pyran-4-yl)-N-[4-[(6,7-dimethoxy-1,5-naphthyridin-4-yl)oxy]-3-fluorophenyl]-6-methyl-8-oxo-3,4-dihydro-1H-pyrido[2,1-c][1,4]oxazine-9-carboxamide] | ≤ 100 nM | ≤ 100 nM
14 | COc1cc2nccc(Oc3ccc(NC(=O)c4c5n(c(C)c(C6=CCCCC6)c4=O)CCOC5)cc3F)c2nc1OC [Compound 80, 7-(Cyclohexen-1-yl)-N-[4-[(6,7-dimethoxy-1,5-naphthyridin-4-yl)oxy]-3-fluorophenyl]-6-methyl-8-oxo-3,4-dihydro-1H-pyrido[2,1-c][1,4]oxazine-9-carboxamide] | ≤ 100 nM | ≤ 100 nM
15 | COc1cnc2c(Oc3ccc(NC(=O)c4c(C)n(C)c(C)c(C#N)c4=O)cc3F)ccnc2c1 [Compound 81, 5-Cyano-N-[3-fluoro-4-[(7-methoxy-1,5-naphthyridin-4-yl)oxy]phenyl]-1,2,6-trimethyl-4-oxopyridine-3-carboxamide] | > 300 nM | > 300 nM
16 | COc1cc2nccc(Oc3ccc(NC(=O)c4c(C)n(C)c(C)c(C#N)c4=O)cc3)c2nc1OC [Compound 82, 5-Cyano-N-[4-[(6,7-dimethoxy-1,5-naphthyridin-4-yl)oxy]phenyl]-1,2,6-trimethyl-4-oxopyridine-3-carboxamide] | > 300 nM | > 300 nM
17 | COCCOc1cc2nccc(Oc3cc(F)c(NC(=O)c4c(C)n(C)c(C)c(C#N)c4=O)cc3F)c2nc1OC [Compound 83, 5-Cyano-N-[2,5-difluoro-4-[[6-methoxy-7-(2-methoxyethoxy)-1,5-naphthyridin-4-yl]oxy]phenyl]-1,2,6-trimethyl-4-oxopyridine-3-carboxamide] | > 300 nM | > 300 nM
18 | COc1cc2nccc(Oc3ccc(NC(=O)c4c(C)nc(C)c(C(N)=O)c4O)cc3F)c2nc1OC [Compound 84, 3-N-[4-[(6,7-Dimethoxy-1,5-naphthyridin-4-yl)oxy]-3-fluorophenyl]-4-hydroxy-2,6-dimethylpyridine-3,5-dicarboxamide] | > 300 nM | > 300 nM
19 | COc1cc2nccc(Oc3ccc(NC(=O)c4c(C)nc(C)c(C(N)=O)c4O)cc3)c2nc1OC [Compound 85, 3-N-[4-[(6,7-Dimethoxy-1,5-naphthyridin-4-yl)oxy]phenyl]-4-hydroxy-2,6-dimethylpyridine-3,5-dicarboxamide] | > 300 nM | > 300 nM
20 | COCCOc1cc2nccc(Oc3cc(F)c(NC(=O)c4c(C)nc(C)c(C(N)=O)c4O)cc3F)c2nc1OC [Compound 86, 3-N-[2,5-Difluoro-4-[[6-methoxy-7-(2-methoxyethoxy)-1,5-naphthyridin-4-yl]oxy]phenyl]-4-hydroxy-2,6-dimethylpyridine-3,5-dicarboxamide] | > 300 nM | > 300 nM
21 | COc1cc2nccc(Oc3ccc(NC(=O)c4c(C)nc(C)c(C#N)c4O)cc3F)c2nc1OC [Compound 87, 5-Cyano-N-[4-[(6,7-dimethoxy-1,5-naphthyridin-4-yl)oxy]-3-fluorophenyl]-4-hydroxy-2,6-dimethylpyridine-3-carboxamide] | > 300 nM | > 300 nM
22 | COc1cc2nccc(Oc3ccc(NC(=O)c4c(C)n(C)c(C)c(N5CCOCC5)c4=O)cc3F)c2nc1OC [Compound 88, N-[4-[(6,7-Dimethoxy-1,5-naphthyridin-4-yl)oxy]-3-fluorophenyl]-1,2,6-trimethyl-5-morpholin-4-yl-4-oxopyridine-3-carboxamide] | ≤ 100 nM | > 300 nM
23 | COc1cc2nccc(Oc3ccc(NC(=O)c4c(C)n(C)c(C)c(N5CCCC5)c4=O)cc3F)c2nc1OC [Compound 89, N-[4-[(6,7-Dimethoxy-1,5-naphthyridin-4-yl)oxy]-3-fluorophenyl]-1,2,6-trimethyl-4-oxo-5-pyrrolidin-1-ylpyridine-3-carboxamide] | ≤ 100 nM | ≤ 100 nM
